Measurements taken from patent US20250000788A1, “BIOCOMPATIBLE DEVICES FOR CELL-BASED THERAPIES AND RELATED METHODS” (SIGILON THERAPEUTICS, INC., priority 2021, published 2025).

How the values were obtained:
[1] = test system: immune-competent C57Bl/6 mice; test: PFO on spheres with mIL-10 secreting ARPE-19 cells and glucocorticoid particles implanted in the peritoneum of mice; assay type: in vivo; details: mIL-10 secreting ARPE-19 cells, explanted at 28 days, FIGS. 5C-5L
[2] = test system: immune-competent C57Bl/6 mice; test: PFO induction on spheres with GLA-secreting human cells and drug particles implanted in the peritoneum of mice; assay type: in vivo; details: explanted after 20 days; for PFO induction on explanted spheres (brightfield micrographs): GLA-secreting human cells co-encapsulated with drug particles, peritoneum; for computer aided opacity scoring of PFO induction: FIG. 4B
Excerpt: GLA-secreting human cells were co-encapsulated with particles of the indicated drug and implanted in the peritoneum of immune-competent C57Bl/6 mice.
GLA-secreting human ARPE-19 cells were co-encapsulated with or without TAH particles into spheres that were then implanted in the peritoneum of immune-competent C57Bl/6 mice.

[3] = Release of soluble drug from alginate spheres containing drug particles, incubated in Normosol; assay type: physicochemical; details: 1 ml Normosol, 37 C; over a 62 (Cyclosporine A) and 32 (TAH) day period respectively; FIG. 1B, 2B
Excerpt: Cyclosporine A particles and Triamcinolone Hexacetonide (TAH) particles were encapsulated in the inner compartment of two compartment alginate hydrogel capsules (“spheres”).

[4] = test system: immune-competent C57Bl/6 mice; test: In vivo hGLA production and viability of GLA-secreting human cells co-encapsulated with TAH crystals, implanted in mice
Experimental: GLA-secreting human cells were co-encapsulated with TAH crystals into spheres that were then implanted in the peritoneum of immune-competent C57Bl/6 mice. The amount of hGLA produced by the spheres (e.g., devices) in vivo at site of implantation and in systemic circulation was measured.

[5] = test system: immune-competent Sprague Dawley rats; test: PFO on spheres with FF particles and ARPE-19 cells implanted in the peritoneum of rats; assay type: in vivo; details: unmodified ARPE-19 cells or cells secreting one of two parathyroid hormone fusion proteins, 21 days, data not shown
Excerpt: In a third experiment, spheres co-encapsulating FF particles and either unmodified human ARPE-19 cells or ARPE-19 cells genetically modified to secrete one of two different fusion proteins comprising human parathyroid hormone were implanted in the peritoneum of immune-competent Sprague Dawley rats (five rats per group).

[6] = 20 days post-implantation, FIG. 6

Compound: fluticasone propionate [FP]
- PFO on explanted spheres [1]: minimal to no PFO

Compound: C[C@@H]1C[C@H]2[C@@H]3CCC4=CC(=O)C=C[C@]4(C)[C@@]3(Cl)[C@@H](O)C[C@]2(C)[C@@]1(OC(=O)c1ccco1)C(=O)CCl [MF, mometasone furoate]
- PFO on explanted spheres [1]: minimal to no PFO

Compound: COc1c(C)c2c(c(O)c1C/C=C(\C)CCC(=O)OCCN1CCOCC1)C(=O)OC2 [MMF]
- PFO induction on explanted spheres (brightfield micrographs) [2]: extensive PFO induction
- computer aided opacity scoring of PFO induction [2]: no statistically significant decrease in PFO induction

Compound: CC(C)(C)CC(=O)OCC(=O)[C@@]12OC(C)(C)O[C@@H]1C[C@H]1[C@@H]3CCC4=CC(=O)C=C[C@]4(C)[C@@]3(F)[C@@H](O)C[C@@]12C [TAH, triamcinolone hexacetonide]
- soluble drug released from the spheres into the Normosol solution [3]: extended release
- PFO induction on explanted spheres (brightfield micrographs) [2]: completely prevented induction of PFO
- PFO on explanted spheres [1]: minimal to no PFO
- hGLA in plasma [4, 6]: Significant levels of hGLA
- hGLA in the peritoneal lavage [4, 6]: Significant levels of hGLA
- viability in vivo of co-encapsulated GLA-secreting human cells ([4]; retrieved spheres, over a course of 20 days, data not shown): maintained their viability

Compound: fluticasone furoate [FF]
- PFO on explanted spheres [1]: minimal to no PFO
- PFO on explanted spheres [5]: minimal to no PFO

Compound: C[C@@H]1CCN(C(=O)CC#N)C[C@@H]1N(C)c1ncnc2[nH]ccc12 [Tofactitinib]
- PFO induction on explanted spheres (brightfield micrographs) [2]: extensive PFO induction
- computer aided opacity scoring of PFO induction [2]: no statistically significant decrease in PFO induction
